Measurements published in patent publication US20240059740A1, “CYCLIC PEPTIDES AND USES THEREOF” (PRE[…] INC., priority 2020, published 2024).
Residues, ends and D or L forms follow the SMILES beside them.

Tested on: uPA
Assay: Casein-plasminogen zymography of conditioned media, uPA production
Format: cell-based, human
Settings: for uPA production: compared to control containing no peptide
Excerpt: To assess whether the peptide SEQ ID NO.1 impacted MMP-2, MMP-9 and uPA production Zymography was used.
Zymography is a technique for studying hydrolytic enzymes on the basis of substrate degradation. The in-gel zymography hydrolytic enzymes are separated by their molecular weights and detected by their ability to degrade a substrate. To detect the activity of MMP-2 and MMP-9 in various cell lines, conditioned media were collected in 3 independent experiments and analysed by gelatin zymography to quantify the level of gelatin digestion, which reflects MMP-2 and MMP-9 activity and production. Casein-Plasminogen zymography was conducted to determine the activity level of uPA in the conditioned medium from various cell lines. Active uPA converts plasminogen into plasmin which then digests casein, thus clear bands where digestion of casein have occurred indirectly represent uPA activity.
The effect of the peptides on matrix protease production was tested using in-gel zymography. If the substrate included in the gel is gelatin, the enzymes detected are gelatinases: MMP-2 and MMP-9 (the latter is often of low abundance). If the gel contains casein and plasminogen, the enzymes tested are urokinase plasminogen activators (uPA); uPA is a therapeutic target in GBM.
An equal amount of protein from each sample was mixed with 5 μL of Laemmli buffer (0.01% Bromophenol Blue (W/V), 5% SDS (W/V), 22% glycerol (V/V), 14% 0.5 M Tris pH 6.8 (V/V)) and loaded onto a 10% polyacrylamide gel co-polymerized with 1 mg/ml of gelatin, and electrophoresed at 120 V for 2 hours on ice. The gel was incubated in […] solution (Triton X-100 2.5% (V/V), 1 M Tris pH 7.5 5% (V/V), 0.5 M CaCl2 1% (W/V) at room temperature overnight on an orbital shaker. The gel was incubated in a second solution for 3 hours at 37° C. The gel was then stained with Coomassie blue solution (Coomassie blue 0.25%, methanol 45%, acetic acid 10%) and destained in methanol 25% (V/V), acetic acid 10% (V/V) destaining solution until clear bands against the dark background appeared around 72 kDa and 95 kDa, representing MMP-2 and MMP-9 activity, respectively. Clear bands around 50 kDa appeared against the dark background representing uPA activity. The gels were scanned, and uPA, MMP-2 and MMP-9 were quantified by densitometry using NIH Image J software.
SEQ ID NO.1 was compared to a control containing no peptide to evaluate whether the peptide can reduce the production of matrix proteinases. […] This could be confirmed using a MMP-9 quantification kit, and altered production by a transcriptional mechanism can be unveiled using qRT-PCR.

Work on CC(C)C[C@@H]1NC(=O)[C@H](C)NC(=O)[C@@H](NC(=O)[C@@H]2CCCN2C(=O)[C@@H](N)CC(C)C)CSSC(C)(C)CNC(=O)CC[C@@H](C(=O)N[C@@H](CCCNC(=N)N)C(N)=O)NC(=O)[C@H](CC(=O)O)NC(=O)[C@H](CC(N)=O)NC1=O [SEQ ID NO: 1, Leu-Pro-c(SSA*-Ala-Leu-Asn-Asp-Glu)-Arg-NH2] (HELM PEPTIDE1{L.P.C.A.L.N.D.E.R.[am]}|CHEM1{[CC(C)(CN[*:2])S[*:1]]}$PEPTIDE1,CHEM1,3:R3-1:R1|PEPTIDE1,CHEM1,8:R3-1:R2$$$V2.0; N-terminus assumed) yielded a uPA production (081024 cells) of 96.43 ± 16.6, a uPA production (U87 cells) of 89.03 ± 5.98 and a uPA production (U251 cells) of 79.92 ± 8.86. For the same molecule, the “production of uPA (overall, in words)” value (overall, all cell lines, cell-conditioned media) was “did not decrease”.
